Reference: ChEMBL document CHEMBL3044651, “Synthesis, fungicidal activity, and structure-activity relationship of spiro-compounds containing macrolactam (macrolactone) and thiadiazoline rings” (J Agric Food Chem, 2010)
In brackets after ≈: the same amount, converted by molar mass.

Experiments:
Type in all cases: functional, organism-based
Pyricularia oryzae = assay: Antifungal activity against Magnaporthe oryzae by mycelium growth rate test
Phomopsis asparagi = assay: Antifungal activity against Phomopsis asparagi by mycelium growth rate test
Rhizoctonia solani = assay: Antifungal activity against Rhizoctonia solani Kuhn by mycelium growth rate test
Botrytis cinerea = assay: Antifungal activity against Botryotinia fuckeliana by mycelium growth rate test
Sclerotinia sclerotiorum = assay: Antifungal activity against Sclerotinia sclerotiorum by mycelium growth rate test

Compound | EC50 (Pyricularia oryzae) [µg/mL] | EC50 (Phomopsis asparagi) [µg/mL] | EC50 (Rhizoctonia solani) [µg/mL] | EC50 (Botrytis cinerea) [µg/mL] | EC50 (Sclerotinia sclerotiorum) [µg/mL]
CC(C)OC(=O)C(C(=O)OC(C)C)=C1SCCS1 [ISOPROTHIOLANE] | 7.19 (≈ 24.8 µM) | – | – | – | –
O=C1CCCCCCCCCCC2(CCCN1)N=N/C(=N/c1ccc(Cl)cc1)S2 (stereo not given) | 0.054 (≈ 0.124 µM) | 102 (≈ 234 µM) | 39.5 (≈ 90.8 µM) | 18.7 (≈ 42.9 µM) | 48.2 (≈ 111 µM)
O=C1CCCCCCCCCCC2(CCCN1)N=N/C(=N/c1ccccc1Br)S2 (stereo not given) | 57.6 (≈ 120 µM) | 60.3 (≈ 126 µM) | 56.1 (≈ 117 µM) | 19.9 (≈ 41.4 µM) | 533 (≈ 1110 µM)
O=C1CCCCCCCCCCC2(CCCN1)N=N/C(=N/c1cc(Cl)ccc1Cl)S2 (stereo not given) | 1.11 (≈ 2.36 µM) | 222 (≈ 472 µM) | 41.8 (≈ 89 µM) | 29.6 (≈ 63 µM) | 109 (≈ 233 µM)
Cc1cc(C)nc(Nc2ccccc2)n1 [PYRIMETHANIL] | – | – | – | 0.14 (≈ 0.703 µM) | –
COc1ccc(/N=C2/N=NC3(CCCCCCCCCCC(=O)NCCC3)S2)cc1 (stereo not given) | 57.8 (≈ 134 µM) | 20.6 (≈ 47.7 µM) | 93 (≈ 216 µM) | 6.47 (≈ 15 µM) | 87.2 (≈ 203 µM)
Cc1ccc(/N=C2/N=NC3(CCCCCCCCCCC(=O)NCCC3)S2)cc1 (stereo not given) | 139 (≈ 335 µM) | 14.5 (≈ 35 µM) | 71.8 (≈ 173 µM) | 25.1 (≈ 60.5 µM) | 34.1 (≈ 82.2 µM)
O=C1CCCCCCCCCCC2(CCCN1)N=N/C(=N/c1ccccc1Cl)S2 (stereo not given) | 41.5 (≈ 95.4 µM) | 24.5 (≈ 56.3 µM) | 31.8 (≈ 73.1 µM) | 14.9 (≈ 34.2 µM) | 242 (≈ 555 µM)
Cc1cccc(/N=C2/N=NC3(CCCCCCCCCCC(=O)NCCC3)S2)c1 (stereo not given) | 63.2 (≈ 152 µM) | 9.67 (≈ 23.3 µM) | 30.7 (≈ 74.1 µM) | 6.42 (≈ 15.5 µM) | 4.42 (≈ 10.7 µM)
O=C1CCCCCCCCCCC2(CCCO1)N=N/C(=N/c1ccccc1Cl)S2 (stereo not given) | 211 (≈ 485 µM) | 116 (≈ 267 µM) | 159 (≈ 365 µM) | 43.8 (≈ 100 µM) | 169 (≈ 388 µM)
O=C1CCCCCCCCCCC2(CCCO1)N=N/C(=N/c1ccccc1Br)S2 (stereo not given) | 246 (≈ 512 µM) | 53.5 (≈ 111 µM) | 208 (≈ 432 µM) | 36.4 (≈ 75.8 µM) | 205 (≈ 426 µM)
O=C1CCCCCCCCCCC2(CCCO1)N=N/C(=N/c1ccc(Br)cc1)S2 (stereo not given) | 338 (≈ 704 µM) | 29.2 (≈ 60.8 µM) | 17.1 (≈ 35.6 µM) | 49.9 (≈ 104 µM) | 38.3 (≈ 79.7 µM)
Cc1ccc(/N=C2/N=NC3(CCCCCCCCCCC(=O)NCCC3)S2)c(C)c1 (stereo not given) | 30.9 (≈ 72.1 µM) | 5.26 (≈ 12.3 µM) | 26.8 (≈ 62.4 µM) | 9.63 (≈ 22.5 µM) | 55.7 (≈ 130 µM)
O=C1CCCCCCCCCCC2(CCCO1)N=N/C(=N/c1ccc(Cl)cc1)S2 (stereo not given) | 338 (≈ 776 µM) | 42.5 (≈ 97.4 µM) | 126 (≈ 290 µM) | 49.9 (≈ 115 µM) | 59.9 (≈ 137 µM)
COc1ccccc1/N=C1/N=NC2(CCCCCCCCCCC(=O)NCCC2)S1 (stereo not given) | 398 (≈ 924 µM) | 517 (≈ 1200 µM) | 37.9 (≈ 88 µM) | 21.8 (≈ 50.7 µM) | 21.1 (≈ 49 µM)
Cc1ccc(C)c(/N=C2/N=NC3(CCCCCCCCCCC(=O)NCCC3)S2)c1 (stereo not given) | 86.6 (≈ 202 µM) | 16.4 (≈ 38.3 µM) | 5.62 (≈ 13.1 µM) | 18.6 (≈ 43.3 µM) | 34.3 (≈ 80 µM)
N#Cc1c(Cl)c(Cl)c(Cl)c(C#N)c1Cl [CHLOROTHALONIL] | – | 4.35 (≈ 16.4 µM) | – | – | 0.41 (≈ 1.54 µM)
CN(C)C(=S)SSC(=S)N(C)C [THIRAM] | – | – | 0.9 (≈ 3.74 µM) | – | –
O=C1CCCCCCCCCCC2(CCCN1)N=N/C(=N/c1ccccc1)S2 (stereo not given) | 41.5 (≈ 104 µM) | 14.2 (≈ 35.4 µM) | 42.1 (≈ 105 µM) | 5.01 (≈ 12.5 µM) | 9.92 (≈ 24.8 µM)
O=C1CCCCCCCCCCC2(CCCN1)N=N/C(=N/Cc1ccccc1)S2 (stereo not given) | 117 (≈ 282 µM) | 21.3 (≈ 51.4 µM) | 23.5 (≈ 56.7 µM) | 14.4 (≈ 34.8 µM) | 8.32 (≈ 20.1 µM)
O=C1CCCCCCCCCCC2(CCCN1)N=N/C(=N/c1cccc3ccccc13)S2 (stereo not given) | 196 (≈ 434 µM) | 46.1 (≈ 102 µM) | 17.8 (≈ 39.5 µM) | 15.7 (≈ 34.9 µM) | 767 (≈ 1700 µM)
Cc1ccc(C)c(/N=C2/N=NC3(CCCCCCCCCCC(=O)OCCC3)S2)c1 (stereo not given) | 3120 (≈ 7270 µM) | 208 (≈ 485 µM) | 422 (≈ 982 µM) | 126 (≈ 294 µM) | 163 (≈ 379 µM)
O=C1CCCCCCCCCCC2(CCCN1)N=N/C(=N/c1ccc(Cl)c(Cl)c1)S2 (stereo not given) | 0.72 (≈ 1.53 µM) | 9.02 (≈ 19.2 µM) | 36.8 (≈ 78.4 µM) | 34.2 (≈ 72.9 µM) | 15 (≈ 32 µM)
Cc1cccc(/N=C2/N=NC3(CCCCCCCCCCC(=O)NCCC3)S2)c1C (stereo not given) | 199 (≈ 465 µM) | 14.8 (≈ 34.6 µM) | 22.4 (≈ 52.2 µM) | 22.6 (≈ 52.7 µM) | 36.5 (≈ 85.2 µM)
Cc1ccccc1/N=C1/N=NC2(CCCCCCCCCCC(=O)NCCC2)S1 (stereo not given) | 78.4 (≈ 189 µM) | 73.8 (≈ 178 µM) | 125 (≈ 301 µM) | 4.21 (≈ 10.2 µM) | 375 (≈ 905 µM)
